# Assay results published in patent US12391686B2, “Compounds and uses thereof” (Foghorn Therapeutics Inc., priority 2019, dated 2025).
# Molecular target: T1, Nanoluciferase-BRD9 fusion protein (3×FLAG-NLuc-BRD9) in SYO-1 cells (Homo sapiens, UniProt Q9H8M2)
# T1 construct: expressed in transfected cells; host or cells: SYO-1
# T1 sequence (Q9H8M2 1-597): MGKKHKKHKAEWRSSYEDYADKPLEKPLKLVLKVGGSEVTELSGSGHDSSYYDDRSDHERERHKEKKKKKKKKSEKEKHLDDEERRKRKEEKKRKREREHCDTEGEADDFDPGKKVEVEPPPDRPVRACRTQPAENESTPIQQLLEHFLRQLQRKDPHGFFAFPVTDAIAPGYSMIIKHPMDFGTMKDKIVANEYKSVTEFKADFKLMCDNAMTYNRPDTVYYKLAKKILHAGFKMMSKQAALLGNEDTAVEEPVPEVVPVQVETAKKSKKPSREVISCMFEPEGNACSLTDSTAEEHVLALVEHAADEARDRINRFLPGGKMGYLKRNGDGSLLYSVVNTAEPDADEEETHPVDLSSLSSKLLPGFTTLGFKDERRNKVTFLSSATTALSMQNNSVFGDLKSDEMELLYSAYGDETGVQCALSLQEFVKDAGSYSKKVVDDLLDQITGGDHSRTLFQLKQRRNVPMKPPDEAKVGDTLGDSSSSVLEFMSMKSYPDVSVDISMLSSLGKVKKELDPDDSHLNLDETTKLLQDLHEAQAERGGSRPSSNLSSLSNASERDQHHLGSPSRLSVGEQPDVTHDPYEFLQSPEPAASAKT
# Experiment: SYO1 BRD9 NanoLuc Degradation Assay
# Type: cell-based
# Details: Table 6B; SYO-1 cells expressing 3×FLAG-NLuc-BRD9, 6 hours incubation, 1 μM top dose; read-out: SYO1 BRD9-NanoLuc degradation IC50
# Summary of the method: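 Stable 3×FLAG-NLuc-BRD9 SYO-1 line, 8000 cells/well, dosed day 1 with 10-point 3-fold dilutions (1 μM final top, duplicates) for 6 h. NanoLuc bioluminescence read with Nano-Glo; % inhibition relative to DMSO (high) and 1 μM reference BRD9 degrader (low) controls.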
row,Compound,DC50 [nM]
1,COc1cc(-c2cn(C)c(=O)c3cnc(N(C)C)cc23)cc(OC)c1CN1CCC(CCN2Cc3cc4c(cc3C2)C(=O)N(C2CCC(=O)NC2=O)C4=O)CC1 (stereo not shown) [Compound D59],< 10
2,COc1cc(-c2cn(C)c(=O)c3cnc(N4CCC4)cc23)cc(OC)c1CN1CC(CN2CCC3(CC2)CN(c2ccc4c(c2)CN(C2CCC(=O)NC2=O)C4=O)C3)C1 (stereo not shown) [Compound D153],< 10
3,COc1cc(-c2cn(C)c(=O)c3cnc(N(C)C)cc23)cc(OC)c1CN1CC(CCN2CCN(c3ccc4c(c3)C(=O)N(C3CCC(=O)NC3=O)C4=O)CC2)C1 (stereo not shown) [Compound D43],≥ 1000
4,COc1cc(-c2cn(C)c(=O)c3cnc(N(C)C)cc23)cc(OC)c1CN1CC(Oc2ccn3c(=O)n(C4CCC(=O)NC4=O)nc3c2)C1 (stereo not shown) [Compound D138],< 10
5,COc1cc(-c2cn(C)c(=O)c3cnc(N4CCC4)cc23)ccc1CN1CCC2(CC1)CN(c1ccc3c(c1)CN(C1CCC(=O)NC1=O)C3=O)C2 (stereo not shown) [Compound D148],< 10
6,CCN(CC)c1cc2c(-c3cc(OC)c(CN4CCN(CCC5CCN(c6ccc7c(c6)C(=O)N(C6CCC(=O)NC6=O)C7=O)CC5)CC4)c(OC)c3)cn(C)c(=O)c2cn1 (stereo not shown) [Compound D115],< 10
7,CCc1cc(-c2cn(C)c(=O)c3cnc(N(C)C)cc23)cc(Cl)c1CN1CCC(CN2CCC3(CC2)CC(Oc2ccc4c(c2)C(=O)N(C2CCC(=O)NC2=O)C4=O)C3)CC1 (stereo not shown) [Compound D140],< 10
8,COc1cc(-c2cn(C)c(=O)c3cnc(N(C)C)cc23)cc(OC)c1CN1CCN(c2ccc3c(c2)C(=O)N(C2CCC(=O)NC2=O)C3=O)CC1 (stereo not shown) [Compound D70],< 10
9,COc1cc(-c2cn(C)c(=O)c3cnc(N(C)C)cc23)cc(OC)c1CN1CC(CN2CC3(CCN(c4ccc5c(c4)C(=O)N(C4CCC(=O)NC4=O)C5=O)C3)C2)C1 (stereo not shown) [Compound D49],< 10
10,COc1cc(-c2cn(C)c(=O)c3cnc(N4CCC4)cc23)cc(OC)c1CN1CC(CN2CCC3(CC2)CN(c2ccc4c(c2)C(=O)N(C2CCC(=O)NC2=O)C4=O)C3)C1 (stereo not shown) [Compound D116],< 10
11,COc1cc(-c2cn(C)c(=O)c3cnc(N(C)C)cc23)cc(OC)c1CN1CC(CN2CCC3(CC2)CN(c2ccc4c(c2)C(=O)N(C2CCC(=O)NC2=O)C4)C3)C1 (stereo not shown) [Compound D152],< 10
12,COc1cc(-c2cn(C)c(=O)c3cnc(N(C)C)cc23)cc(OC)c1CN1CC(C(C)N2CCC3(CC2)CN(c2ccc4c(c2)C(=O)N(C2CCC(=O)NC2=O)C4=O)C3)C1 (stereo not shown) [Compound D110],< 10
13,COc1cc(-c2cn(C)c(=O)c3cnc(N(C)C)cc23)cc(Cl)c1CN1CCC(CN2CCC3(CC2)CC(Oc2ccc4c(c2)C(=O)N(C2CCC(=O)NC2=O)C4=O)C3)CC1 (stereo not shown) [Compound D101],< 10
14,COc1cc(-c2cn(C)c(=O)c3cnc(N(C)C)cc23)cc(OC)c1CN1CC2(CC(N3Cc4cc5c(cc4C3)C(=O)N(C3CCC(=O)NC3=O)C5=O)C2)C1 (stereo not shown) [Compound D63],< 10
15,COc1cc(-c2cn(C)c(=O)c3cnc(N(C)C)cc23)cc(OC)c1CN1CC2CN(C(=O)CCOCCOc3ccc4c(c3)C(=O)N(C3CCC(=O)NC3=O)C4=O)CCC21 (stereo not shown) [Compound D33],< 10
16,COc1cc(-c2cn(C)c(=O)c3cnc(N(C)C)cc23)cc(OC)c1CN1CCC(CCCN2Cc3cc4c(cc3C2)C(=O)N(C2CCC(=O)NC2=O)C4=O)CC1 (stereo not shown) [Compound D62],< 10
17,COc1cc(-c2cn(C)c(=O)c3cnc(N(C)C)cc23)cc(OC)c1CN1CCC2(CC1)CN(c1ccc3c(c1)CN(C1CCC(=O)NC1=O)C3=O)C2 (stereo not shown) [Compound D127],< 10
18,COc1cc(-c2cn(C)c(=O)c3cnc(N(C)C)cc23)cc(OC)c1CN1CC(c2ccc3c(c2)C(=O)N(C2CCC(=O)NC2=O)C3=O)C1 (stereo not shown) [Compound D132],< 10
19,COc1cc(-c2cn(C)c(=O)c3cnc(N4CCC4)cc23)cc(OC)c1CN1CCC(CN2CCC3(CC2)CN(c2ccc4c(c2)C(=O)N(C2CCC(=O)NC2=O)C4=O)C3)CC1 (stereo not shown) [Compound D136],< 10
20,COc1cc(-c2cn(C)c(=O)c3cnc(N(C)C)cc23)cc(OC)c1CN1CCC(CN2CCC3(CC2)CC(Oc2ccc4c(c2)C(=O)N(C2CCC(=O)NC2=O)C4)C3)CC1 (stereo not shown) [Compound D107],< 10

# Next, values leading:
row,DC50 [nM],Compound
1,< 10,CNc1cc2c(=O)n(C)cc(-c3cc(OC)c(CN(C)CC45CC(C(=O)NCCCCCOc6ccc7c(c6)C(=O)N(C6CCC(=O)NC6=O)C7=O)(C4)C5)c(OC)c3)c2cn1 (stereo not shown) [Compound D173]
2,≥ 1000,COc1cc(-c2cn(C)c(=O)c3cnc(OC(F)F)cc23)cc(OC)c1CN1CC(CN2CCC3(CC2)CN(c2ccc4c(c2)C(=O)N(C2CCC(=O)NC2=O)C4)C3)C1 (stereo not shown) [Compound D175]
3,< 10,COc1cc(-c2cn(C)c(=O)c3cnc(N(C)C)cc23)cc(OC)c1CN1CCN(CC2CCN(c3ccc4c(c3)C(=O)N(C3CCC(=O)NC3=O)C4=O)CC2)CC1 (stereo not shown) [Compound D155]
4,< 10,COc1cc(-c2cn(C)c(=O)c3cnc(N4CCOCC4)cc23)cc(OC)c1CN1CCC(CN2CCC3(CC2)CC(Oc2ccc4c(c2)C(=O)N(C2CCC(=O)NC2=O)C4=O)C3)CC1 (stereo not shown) [Compound D178]

# Same assay, conditions: Table 6C; SYO-1 cells expressing 3×FLAG-NLuc-BRD9, 6 hours incubation, 1 μM top dose; read-out: SYO1 BRD9-NanoLuc degradation IC50
row,DC50 [nM],Compound
1,< 10,COc1cc2c(-c3cc(OC)c(CN4CCN(CCC5CCN(c6ccc7c(c6)C(=O)N(C6CCC(=O)NC6=O)C7)CC5)CC4)c(OC)c3)cn(C)c(=O)c2cn1 (stereo not shown) [Compound D225]
2,< 10,COc1cc(-c2cn(C)c(=O)c3cnc(C4(C)CC4)cc23)cc(OC)c1CN1CCC(CCN2CCN(c3ccc4c(c3)CN(C3CCC(=O)NC3=O)C4=O)CC2)CC1 (stereo not shown) [Compound D238]
3,< 10,[2H]C([2H])([2H])n1cc(-c2cc(OC)c(CN3CC(CN4CCC5(CC4)CN(c4ccc6c(c4)C(=O)N(C4CCC(=O)NC4=O)C6=O)C5)C3)c(OC)c2)c2cc(C3CC3)ncc2c1=O (stereo not shown) [Compound D306]
4,< 10,COc1cc(-c2cn(C)c(=O)c3cnc(N4CCC4)cc23)cc(OC)c1CN1CC(N(C)c2ccc3c(c2)C(=O)N(C2CCC(=O)NC2=O)C3)C1 (stereo not shown) [Compound D256]
5,< 10,COc1cc2c(-c3cc(OC)c(CN4CCN(CCC5CCN(c6ccc7c(c6)CN(C6CCC(=O)NC6=O)C7=O)CC5)CC4)c(OC)c3)cn(C)c(=O)c2cn1 (stereo not shown) [Compound D224]
6,< 10,COc1cc(-c2cn(C)c(=O)c3cnc(N4CC[C@H]4C)cc23)cc(OC)c1CN1CC(CN2CCC3(CC2)CN(c2ccc4c(c2)C(=O)N(C2CCC(=O)NC2=O)C4)C3)C1 (stereo partly shown) [Compound D212]
7,< 10,COc1cc(-c2cn(C)c(=O)c3cnc(N(C)C)cc23)cc(OC)c1C1CCN(c2ccc3c(c2)C(=O)N(C2CCC(=O)NC2=O)C3)CC1 (stereo not shown) [Compound D265]
8,< 10,COc1cc(-c2cn(C)c(=O)c3cnc(C4CC4)cc23)cc(OC)c1CN1CCC(C(N2CCC3(CC2)CC(Oc2ccc4c(c2)C(=O)N(C2CCC(=O)NC2=O)C4)C3)C(F)(F)F)CC1 (stereo not shown) [Compound D243]
9,< 10,COc1cc2c(-c3cc(OC)c(CN4[C@H](C)CN(c5ccc6c(c5)C(=O)N(C5CCC(=O)NC5=O)C6)C[C@H]4C)c(OC)c3)cn(C)c(=O)c2cn1 (stereo partly shown) [Compound D281]
10,< 10,COc1cc(-c2cn(C)c(=O)c3cnc(N4CC(F)(F)C4)cc23)cc(OC)c1CN1CCN(CCC2CCN(c3ccc4c(c3)CN(C3CCC(=O)NC3=O)C4=O)CC2)CC1 (stereo not shown) [Compound D248]
11,< 10,COc1cc(-c2cn(C)c(=O)c3cnc(C4CC4)cc23)cc(OC)c1CN1CCC(CCN2CCN(c3ccc4c(c3)C(=O)N(C3CCC(=O)NC3=O)C4)CC2)CC1 (stereo not shown) [Compound D305]
12,< 10,COc1cc2c(-c3cc(OC)c(CN4CCN(c5ccc6c(c5)C(=O)N(C5CCC(=O)NC5=O)C6)CC4)c(OC)c3)cn(C)c(=O)c2cn1 (stereo not shown) [Compound D217]
13,< 10,COc1cc(-c2cn(C)c(=O)c3cnc(N4CCC4)cc23)cc(OC)c1CN1CCC(CN2CCC3(CN(c4ccc5c(c4)C(=O)N(C4CCC(=O)NC4=O)C5)C3)C(F)(F)C2)CC1 (stereo not shown) [Compound D227]
14,< 10,CCOC1CC1c1cc2c(-c3cc(OC)c(CN4CCN(CCC5CCN(c6ccc7c(c6)C(=O)N(C6CCC(=O)NC6=O)C7=O)CC5)CC4)c(OC)c3)cn(C)c(=O)c2cn1 (stereo not shown) [Compound D204]
15,≥ 1000,COc1cc(-c2cn(C)c(=O)c3ccc(N(C)C)cc23)cc(OC)c1CN1CC(CN2CCC3(CC2)CN(c2ccc4c(c2)C(=O)N(C2CCC(=O)NC2=O)C4)C3)C1 (stereo not shown) [Compound D285]
16,10 to 100,COc1cc(-c2cn(C)c(=O)c3cnc(N(C)C)cc23)cc(OC)c1CN1CC2(CCC(N3CCN(C4CCC(=O)NC4=O)C(=O)C3)CC2)C1 (stereo not shown) [Compound D252]
17,< 10,COc1cc(-c2cn(C)c(=O)c3cnc(N(C)C)cc23)cc(OC)c1CC1CCN(c2ccc3c(c2)C(=O)N(C2CCC(=O)NC2=O)C3)CC1 (stereo not shown) [Compound D280]
18,< 10,COc1cc(-c2cn(C)c(=O)c3cnc(N(C)C)cc23)cc(OC)c1CN1CCC(c2ccc3c(c2)CN(C2CCC(=O)NC2=O)C3=O)CC1 (stereo not shown) [Compound D297]
19,< 10,COc1cc(-c2cn(C)c(=O)c3cnc(N4CCC4)nc23)cc(OC)c1CN1CCC(CN2CCC3(CC2)CC(Oc2ccc4c(c2)C(=O)N(C2CCC(=O)NC2=O)C4)C3)CC1 (stereo not shown) [Compound D286]
